Key:
[1] = test system: influenza A virus (IAV) A/Aichi/2/68 (H3N2); experiment: Cytopathic effect (CPE) assay; type: cell-based; settings: MDCK cells, 48 hrs
[2] = test system: MDCK cells; experiment: Cytotoxicity in uninfected cells of the CPE assay; type: cell-based, canine; settings: at 50 μM
Method: After removal of the culture medium and one washing step with PBS, virus and compound were added together to the cells. In the wells used for cytotoxicity determination (i.e. in the absence of viral infection), no virus suspension was added. Instead, infection medium was added. Each treatment was conducted in two replicates. After incubation at 37° C., 5% CO2 for 48 hrs, each well was observed microscopically for apparent cytotoxicity, precipitate formation, or other notable abnormalities. Then, cell viability was determined using CellTiter-Glo luminescent cell viability assay (Promega). The supernatant was removed carefully and 65 μl of the reconstituted reagent were added to each well and incubated with gentle shaking for 15 min at room temperature. Then, 60 μl of the solution was transferred to an opaque plate and luminescence (RLU) was measured using Synergy HT plate reader (Biotek).
Relative cell viability values of uninfected-treated versus uninfected-untreated cells were used to evaluate cytotoxicity of the compounds. Substances with a relative viability below 80% at the tested concentration were regarded as cytotoxic and retested at lower concentrations.

[3] = target: T1, influenza A virus (IAV) PA-Nter fragment (amino acids 1-209) (Influenza A virus, UniProt P31343); experiment: FRET endonuclease activity assay; type: biochemical; settings: for IC50: calculated from initial reaction velocities (v0)
T1 construct: PA-Nter fragment (amino acids 1-209); made in house

Row | Compound | FRET activity in words [3] | melting point | other results
1 | CSC1=NC2C(=O)C(C(=O)O)=CN(Cc3ccccc3-c3ccccc3)C2S1 (stereo not shown) | – | – | CPE activity in words [1]: inactive; Cytotoxicity (relative viability below 80% regarded as cytotoxic) [2]: Toxic
2 | O=CNc1nc2c(=O)c(C(=O)O)cn(Cc3ccccc3-c3ccccc3)c2s1 | – | – | CPE activity in words [1]: inactive; IC50 [3]: 47 µM
3 | O=C(O)c1cn(Cc2ccccc2-c2ccccc2)c2nc(NC3CCCC3)sc2c1=O | inactive | – | –
4 | Nc1cc2n(C(=O)C3(c4ccccc4)CCCC3)cc(C(=O)O)c(=O)n2n1 [drawing 232] | inactive | – | –
5 | CCOC(=O)c1cn(Cc2ccccc2-c2ccccc2)c2sc(NS(=O)(=O)c3ccc(Cl)cc3F)nc2c1=O | inactive | – | IC50 ([1]; Influenza A virus, H3N2): 39 µM
6 | CCOC(=O)c1cn(Cc2ccccc2-c2ccccc2)c2sc(SC)nc2c1=S | inactive | – | inhibition at 50 µM ([1]; Influenza A virus, H3N2, @ 50 μM, read-out: CPE % reduction): 35%
7 | O=C(O)c1cn(Cc2ccccc2-c2ccccc2)c2sc(NC3CCCC3)nc2c1=O | – | – | CPE activity in words [1]: inactive; Cytotoxicity (relative viability below 80% regarded as cytotoxic) [2]: toxic
8 | O=C(O)c1cn(Cc2ccccc2-c2ccccc2)c2sc(NS(=O)(=O)c3ccc(Cl)cc3)nc2c1=O | – | – | IC50 ([1]; Influenza A virus, H3N2): 18 µM; IC50 [3]: 2.2 µM
9 | O=C(O)c1cn(CCc2ccccc2)c2cc(C3CCCC3)nn2c1=O [drawing 219] | – | – | CPE activity in words [1]: inactive; FRET % reduction of v0 ([3]; @ 25 μM): 26% @ 25 μM
10 | O=C(O)c1c[nH]c2ccnn2c1=O [drawing 208] | – | – | inhibition at 5 µM ([3]; 20 min, @ 5 μM, read-out: FRET % reduction of v0): 26%
11 | O=C(O)c1cn(Cc2ccccc2-c2ccccc2)c2sc(N3CCCCC3)nc2c1=O | inactive | – | –
12 | O=C(O)c1cn(Cc2ccccc2-c2ccccc2)c2nc(NCc3ccccc3)sc2c1=O | inactive | – | –
13 | CCOC(=O)c1c[nH]c2nc(NCc3ccccc3)nn2c1=O | – | 275 to 278 °C | –
14 | O=C(O)c1c[nH]c2nc(NCc3ccccc3)nn2c1=O | – | 240 to 245 °C | –
15 | CNC(=O)c1cn(Cc2ccccc2-c2ccccc2)c2sc(NCc3ccccc3)nc2c1=O | inactive | – | –
16 | CCOC(=O)c1cn(CCc2ccccc2)c2cc(C3CC3)nn2c1=O | – | 155 to 160 °C | –
17 | CCOC(=O)Cc1c[nH]c2cc(C3CC3)nn2c1=O | – | 280 to 283 °C | –
18 | CCOC(=O)Cc1c[nH]c2cc(-c3ccccc3)nn2c1=O | – | 245 to 250 °C | –
19 | CCOC(=O)Cc1c[nH]c2cc(C(F)(F)F)nn2c1=O | – | 290 to 293 °C | –
20 | Cc1[nH]c2ncnn2c(=O)c1CC(=O)O | inactive | – | –
21 | CCOC(=O)Cc1cn(C)c2cc(C3CC3)nn2c1=O | – | 147 to 150 °C | –

Source: US20160367557A1, “HE[…] ACID DERIVATIVES WHICH ARE USEFUL IN THE TREATMENT, AMELIORATION OR PREVENTION OF A VIRAL DISEASE” (Savira pharmaceuticals GmbH, priority 2012, published 2016)
